According to US20100305183A1, “METHOD AND COMPOSITION FOR REDUCING REPERFUSION INJURY” (Adelaide Research & Innovation Pty Ltd, priority 2006, published 2010):

Experiments:
Format in all cases: in vivo
[1] = system: rats subject to ischaemia/reperfusion injury; test: Rotarod test of motor function after reversible stroke and reperfusion; details: 2 h occlusion, over ensuing 7 days, FIG. 4
Experimental: Anaesthetised rats were subject to 2 hours reversible stroke using the intraluminal thread model of middle cerebral artery occlusion. At 2 hours, reperfusion was initiated by withdrawing the thread and following a further 2 hours, N-acetyl-L-tryptophan (10^-5 mol/kg) or […],060 (1 mg/kg) was administered by intravenous injection.

[2] = system: blood brain barrier; test: Blood brain barrier permeability induced by injection of tPA in naïve (uninjured) animal; details: FIG. 2
[3] = system: rats subject to ischaemia/reperfusion injury; test: Oedema after reversible stroke (intraluminal thread model of middle cerebral artery occlusion) and reperfusion; details: 2 h occlusion, 10^−5 mol/kg intravenous 2 h after reperfusion, FIG. 3
Experimental: To this end, anaesthetised rats were subject to 2 hours reversible stroke using the intraluminal thread model of middle cerebral artery occlusion. At 2 hours, reperfusion was initiated by withdrawing the thread and following a further 2 hours, N-acetyl-L-tryptophan (10^−5 mol/kg) was administered by intravenous injection. There was a significant increase in oedema at 24 h following ischaemia/reperfusion injury.

[4] = system: IL-6; test: Serum IL-6 by ELISA after hypoxia and hypotension; details: rats; 10^−5 mol/kg intravenous after hypoxia and hypotension; blood at 6 hours after the insult; FIG. 6
Experimental: In order to induce the inflammatory response associated with reperfusion, anaesthetised rats were subject to 15 minutes of hypoxia (PAO2 30-40 mmHg) and hypotension (MABP 40 mmHg), before blood oxygen level and blood pressure were restored to normal levels. In addition, serum interleukin 6 levels were also determined. Blood samples were collected at 6 hours after the insult. Changes in serum IL-6 levels were quantified using an enzyme-linked immunosorbent assay (ELISA). Serum levels of IL-6 were compared between animals that were not subject to ischaemia (control), animals subject to ischaemia followed by administration of drug vehicle alone (ischaemia), and animals subject to ischaemia followed by administration of a substance P receptor antagonist (NK1) (FIG. 6).

[5] = system: blood brain barrier; test: Evan's blue leakage into brain tissue following injury; details: dose-dependent, FIG. 1
Description: We chose to use the compound N-acetyl-L-tryptophan (NAT).

[6] = system: IL-1β, IL-6 and TNFα mRNA; test: RT-PCR of inflammatory cytokine mRNA in brain tissue after hypoxia and hypotension; details: rats, 10^−5 mol/kg intravenous after hypoxia and hypotension, 6 hours after injury, normalised to rpL32
Experimental: In order to induce the inflammatory response associated with reperfusion, anaesthetised rats were subject to 15 minutes of hypoxia (PAO2 30-40 mmHg) and hypotension (MABP 40 mmHg), before blood oxygen level and blood pressure were restored to normal levels. In order to examine the effects of a substance P antagonist on the inflammatory response, N-acetyl-L-tryptophan was administered intravenously at a dose of 10^−5 mol/kg after hypoxia and hypotension. The expression of mRNA for the inflammatory cytokines IL-1β, IL-6 and TNFα in brain tissue was determined by reverse transcription followed by a polymerase chain reaction (RT-PCR). mRNA levels were normalised with respect to expression of rpL32. Brain tissue samples were collected at 6 hours after injury. Levels of expression of mRNA for the inflammatory cytokines were compared between non-ischaemic animals (control), ischaemic animals administered drug vehicle alone (ischaemia), and ischaemic animals administered a substance P receptor antagonist (NK1). mRNA expression was determined for IL-1β (FIG. 5a), IL-6 (FIG. 5b) and TNFα (FIG. 5c).

FC(F)(F)c1cc(CO[C@H]2CCCN[C@H]2c2ccccc2)cc(C(F)(F)F)c1 [L733,060]
functional outcome, rotarod test of motor function ([1]; 1 mg/kg intravenous 2 h after reperfusion): improved functional outcome

CC(=O)N[C@@H](Cc1c[nH]c2ccccc12)C(=O)O [N-acetyl-L-tryptophan]
permeability of the blood brain barrier induced by tPA ([2]; NAT 10^−5 mol/kg, tPA (Actilyse) injected to naïve (uninjured) animal): prevented the increased permeability of the blood brain barrier | oedema at 24 h following ischaemia/reperfusion injury [3]: significantly attenuated | increase in serum IL-6 levels [4]: this response was not observed | leakage of Evan's blue dye into the brain tissue (blood brain barrier closure) [5]: reduced leakage of Evan's blue dye into the brain tissue | functional outcome, rotarod test of motor function ([1]; 10^−5 mol/kg intravenous 2 h after reperfusion): profound improvement in functional outcome | expression of IL-1β mRNA in brain tissue with respect to non-ischaemic animals ([6]; FIG. 5a): no significant differences | expression of IL-6 mRNA in brain tissue with respect to non-ischaemic animals ([6]; FIG. 5b): no significant differences | expression of TNFα mRNA in brain tissue with respect to non-ischaemic animals ([6]; FIG. 5c): no significant differences

tPA: tissue plasminogen activator, a thrombolytic agent
permeability of the blood brain barrier after tPA alone ([2]; tPA (Actilyse) alone to naïve (uninjured) animal): increased permeability of the blood brain barrier
